One compound from US11523607B2, “Sperm storage media comprising MHY 1485 for enhancing sperm quality and function” (UNIVERSIDADE DO PORTO, priority 2017, dated 2022) can be followed below.

Format in all cases: cell-based
Data set [1] relates to Human spermatozoa. In words: Human spermatozoa lipid peroxidation after storage (immunoblot). The settings on record: 2 μg/mL, 37° C., 120 minutes storage. The method, then:
(§1) FIG. 6—Human spermatozoa oxidative damage to proteins (carbonylation) and lipids (peroxidation) after storage for 120 minutes at 37° C. Spermatozoa were stored in Sperm Preparation Medium (ORIGIO, Måløv, Denmark) not supplemented (Control) or supplemented with an mTOR activator (MHY 1485). Spermatozoa were also incubated with an mTOR inhibitor (Rapamycin; Rap) as a negative control. Protein carbonylation was assessed by immunobloting a specific @DNP antibody (SigmaAldrich, St. Louis, Mo., USA). Lipid peroxidation was assessed by immunobloting a specific @HNE antibody (Merck Millipore, Temecula, USA). […]
(§2) We evaluated the use of an mTOR activator (MHY 1485) as an additive during sperm storage at 37° C. […] We assessed key sperm quality parameters, namely sperm viability and sperm motility, using standard methods, as described by the guidelines of the World Health Organization, with the supervision of a certified embryologist. We also evaluated the oxidative damages to sperm DNA (DNA fragmentation), proteins (protein carbonylation) and lipids (lipid peroxidation). Sperm DNA fragmentation was assessed using the Halosperm® kit (Halotech DNA SL, Madrid, Spain). Sperm protein carbonylation and lipid peroxidation were evaluated using specific antibodies (ABCAM®, Cambridge, USA) raised against 2,4-dinitrophenol groups and anti-4-hydroxynonenal groups (respectively). […]
On the technique in general: A western blot detects proteins with antibodies after separation by electrophoresis.

The subject of data set [2] is Human spermatozoa. Kind of data set: Human spermatozoa metabolism during storage (glucose consumption, lactate production by 1H-NMR). The settings on record: 2 μg/mL, 37° C. The method, then: FIG. 3—Human spermatozoa metabolism during storage for 120 minutes at 37° C. Spermatozoa were stored in Sperm Preparation Medium (ORIGIO, Måløv, Denmark) not supplemented (Control) or supplemented with an mTOR activator (MHY 1485). Spermatozoa were also incubated with an mTOR inhibitor (Rapamycin; Rap) as a negative control. Sperm glucose consumption and lactate production were assessed by 1H nuclear magnetic resonance. Results are presented as mean±standard error of the mean (n=12); Significant results (P<0.05) are indicated as *-vs. Control.
We evaluated the use of an mTOR activator (MHY 1485) as an additive during sperm storage at 37° C. We added the mTOR activator (at a concentration of 2 μg/mL) to a commercial sperm storage medium (Sperm Preparation Medium®; Origio, Malay, Denmark) and stored the spermatozoa suspension (2 million spermatozoa per mL) in microtubes (at 37° C. in a 5% CO2 incubator) for up to 120 minutes, evaluating key parameters of quality and the degree of oxidative damages to those cells at regular intervals (0, 30 and 120 minutes). We assessed key sperm quality parameters, namely sperm viability and sperm motility, using standard methods, as described by the guidelines of the World Health Organization, with the supervision of a certified embryologist. We also evaluated the oxidative damages to sperm DNA (DNA fragmentation), proteins (protein carbonylation) and lipids (lipid peroxidation). Sperm DNA fragmentation was assessed using the Halosperm® kit (Halotech DNA SL, Madrid, Spain). Sperm protein carbonylation and lipid peroxidation were evaluated using specific antibodies (ABCAM®, Cambridge, USA) raised against 2,4-dinitrophenol groups and anti-4-hydroxynonenal groups (respectively). The metabolic alterations of spermatozoa were also evaluated by means of the proton magnetic resonance technique (1H-NMR), using a Varian 600 MHz spectrometer equipped with a 3 mm indirect detection probe with z-gradient (Varian, Palo Alto, USA). At the end of the storage, we evaluated the capacitation potential of the spermatozoa, by incubating the cells in a commercial medium (Lifeglobal®, Guilford, USA) and assessing the 3-nitrotyrosine levels using specific antibodies (ABCAM®, Cambridge, USA). An mTOR inhibitor (Rapamycin at a concentration of 0,1 μg/mL) was used as a negative control.

Data set [3] has as its system Human spermatozoa. In words: Human spermatozoa viability after storage (eosin-nigrosin staining). The settings on record: 2 μg/mL in Sperm Preparation Medium, 37° C. The method, then:
(§3) FIG. 1—Human spermatozoa viability after storage during 120 minutes at 37° C. Spermatozoa were stored in Sperm Preparation Medium (ORIGIO, Måløv, Denmark) not supplemented (Control) or supplemented with an mTOR activator (MHY 1485). Spermatozoa were also incubated with an mTOR inhibitor (Rapamycin; Rap) as a negative control. Viability was assessed by the eosin-nigrosin staining method. Results are presented as mean±standard error of the mean (n=12); Significant results (P<0.05) are indicated as *-vs. Control.
as §2

Data set [4] has as its system Human spermatozoa. In words: Human spermatozoa DNA fragmentation after storage (Halosperm kit). The settings on record: 2 μg/mL, 37° C., 120 minutes storage. The method, then: FIG. 5—Human spermatozoa DNA fragmentation after storage for 120 minutes at 37° C. Spermatozoa were stored in Sperm Preparation Medium (ORIGIO, Måløv, Denmark) not supplemented (Control) or supplemented with an mTOR activator (MHY 1485). Spermatozoa were also incubated with an mTOR inhibitor (Rapamycin; Rap) as a negative control. DNA fragmentation was assessed using a Halosperm G2 kit (HALOTECH, Madrid, Spain). Results are presented as mean±standard error of the mean (n=12); Significant results (P<0.05) are indicated as *-vs. Control.
as §2

Data set [5] relates to Human spermatozoa. In words: Human spermatozoa protein carbonylation after storage (immunoblot). Particulars: 2 μg/mL, 37° C., 120 minutes storage. The method, then:
as §1, §2

Data set [6] has as its system Human spermatozoa. Kind of data set: Human spermatozoa capacitation after storage. The settings on record: 2 μg/mL in Sperm Preparation Medium, 37° C. The method, then: as §3, with “4—Human” for “1—Human”, “capacitation” for “viability”, “for” for “during”, “Sperm capacitation” for “Viability”, “evaluating sperm phosphotyrosine levels after 180 minutes incubation in Sperm Capacitation Medium (LifeGlobal Europe, Brussels, Belgium).” for “the eosin-nigrosin staining method.”
as §2

For data set [7], the system named is Human spermatozoa. Kind of data set: Human spermatozoa motility after storage. The settings on record: 2 μg/mL in Sperm Preparation Medium, 37° C. The method, then: FIG. 2—Human spermatozoa motility after storage during 120 minutes at 37° C. Spermatozoa were stored in Sperm Preparation Medium (ORIGIO, Måløv, Denmark) not supplemented (Control) or supplemented with an mTOR activator (MHY 1485). Spermatozoa were also incubated with an mTOR inhibitor (Rapamycin; Rap) as a negative control. Results are presented as mean±standard error of the mean (n=12); Significant results (P<0.05) are indicated as *-vs. Control.
as §2

For `O=[N+]([O-])c1ccc(Nc2nc(N3CCOCC3)nc(N3CCOCC3)n2)cc1` [MHY 1485], the “lipid oxidative damage (lipid peroxidation)” value in data set [1] is “not increased”. Besides, in data set [2] (30 minutes storage), the consumption of hexoses entry is reported as “no differences were observed” and the production of lactate result is on record as “no differences were observed”. Further, in data set [2] (120 minutes storage), the glucose consumption entry is reported as “maintained” and the lactate production entry was “increased”. For the same compound, the “percentage of viable sperm” value in data set [3] (30 minutes storage, vs time zero) was “maintained the percentage of viable sperm at similar levels as those of time zero”. Besides, in data set [3] (120 minutes storage), the sperm viability result is reported as “capable to preserve sperm viability”. In addition, in data set [4], the “sperm DNA integrity (DNA fragmentation)” value is “DNA remaining fully intact”. In data set [5], the “sperm protein oxidative damage (protein carbonylation)” value is “not increased”. Besides, the capacitation potential result in data set [6] (120 minutes storage) is “capable to preserve sperm viability and its capacitation potential”. The capacitation potential entry in data set [6] (during storage) was “sustain its capacitation potential”. Besides, the spermatozoa motility result in data set [7] (120 minutes storage) is “sustaining a higher motility”. Besides, the spermatozoa motility entry in data set [7] (during storage) is “capable to maintain sperm motile”.
